The text below walks through data of ChEMBL document CHEMBL1697731, “Cheminformatics analysis of assertions mined from literature that describe drug-induced liver injury in different species” (Chem Res Toxicol, 2010).

The test system of data set [1] is Hepatotoxicity. The data set is described as follows: Literature-mined compound from Fourches et al multi-species drug-induced liver injury (DILI) dataset, effect in rodents. To be noted: rodentia.
Data set [2] concerns Hepatotoxicity. The data set can be described thus: Literature-mined compound from Fourches et al multi-species drug-induced liver injury (DILI) dataset, effect in non-rodents.
Data set [3] has as its system Hepatotoxicity. The data set is described as follows: Literature-mined compound from Fourches et al multi-species drug-induced liver injury (DILI) dataset, effect in humans. Conditions: human.

Take `Clc1c(Cl)c(Cl)c(Cl)c(Cl)c1Cl` [PERCHLOROBENZENE]: the Hepatotoxicity result in the data set with Hepatotoxicity [1] is “drug-induced liver injury reported”; in the data set on Hepatotoxicity [2], “no drug-induced liver injury reported”; in the data set with Hepatotoxicity [3] it was “drug-induced liver injury reported”.

For `FC(F)(F)C(F)(F)C(F)(F)C(F)(F)C(F)(F)C(F)(F)C(F)(F)C(F)(F)Br` [PERFLUBRON], the values for the Hepatotoxicity entry in the data set on Hepatotoxicity [1], in the data set with Hepatotoxicity [2] and in the data set on Hepatotoxicity [3] were “no drug-induced liver injury reported”, “drug-induced liver injury reported” and “drug-induced liver injury reported”, respectively.

For the compound `CCC[C@H](N[C@@H](C)C(=O)N1[C@H](C(=O)O)C[C@@H]2CCCC[C@@H]21)C(=O)OCC` [PERINDOPRIL], the Hepatotoxicity entry with Hepatotoxicity [1] was “drug-induced liver injury reported”; with Hepatotoxicity [2], “no drug-induced liver injury reported”; in the data set on Hepatotoxicity [3], “drug-induced liver injury reported”.

With `CC1(C)C(C=C(Cl)Cl)C1C(=O)OCc1cccc(Oc2ccccc2)c1` (configuration not stated) [PERMETHRIN], the Hepatotoxicity result with Hepatotoxicity [1] is “drug-induced liver injury reported”; in the data set with Hepatotoxicity [2], “no drug-induced liver injury reported”; in the data set on Hepatotoxicity [3], “no drug-induced liver injury reported”.

As for `OCCN1CCN(CCCN2c3ccccc3Sc3ccc(Cl)cc32)CC1` [PERPHENAZINE], the values for the Hepatotoxicity entry in the data set on Hepatotoxicity [1], with Hepatotoxicity [2] and in the data set on Hepatotoxicity [3] were “drug-induced liver injury reported”, “no drug-induced liver injury reported” and “no drug-induced liver injury reported”, respectively.

With `CCOc1ccc(NC(C)=O)cc1` [PHENACETIN], the Hepatotoxicity result was “drug-induced liver injury reported” in the data set on Hepatotoxicity [1], “no drug-induced liver injury reported” in the data set with Hepatotoxicity [2] and “drug-induced liver injury reported” in the data set on Hepatotoxicity [3].

As to `NNCCc1ccccc1` [PHENELZINE], the Hepatotoxicity result is reported as “drug-induced liver injury reported” in the data set on Hepatotoxicity [1] (Liver), “no drug-induced liver injury reported” with Hepatotoxicity [2] (Liver) and “drug-induced liver injury reported” in the data set on Hepatotoxicity [3] (Liver).

Regarding `[H]/N=C(/N)N/C(=N/[H])NCCc1ccccc1` [PHENFORMIN], the figures for the Hepatotoxicity result with Hepatotoxicity [1], with Hepatotoxicity [2] and in the data set on Hepatotoxicity [3] were “drug-induced liver injury reported”, “no drug-induced liver injury reported” and “no drug-induced liver injury reported”, respectively.

As for `CCC1(c2ccccc2)C(=O)NC(=O)NC1=O` [PHENOBARBITAL], the Hepatotoxicity result with Hepatotoxicity [1], in the data set with Hepatotoxicity [2] and in the data set with Hepatotoxicity [3] was “drug-induced liver injury reported” throughout.

As to `O=C1OC(c2ccc(O)cc2)(c2ccc(O)cc2)c2ccccc21` [PHENOLPHTHALEIN], the Hepatotoxicity entry with Hepatotoxicity [1] is recorded as “drug-induced liver injury reported”; with Hepatotoxicity [2], “no drug-induced liver injury reported”; in the data set on Hepatotoxicity [3], “no drug-induced liver injury reported”.

For the compound `Oc1ccccc1` [PHENOL], the Hepatotoxicity result with Hepatotoxicity [1] (Liver) is “drug-induced liver injury reported”; in the data set with Hepatotoxicity [2] (Liver), “no drug-induced liver injury reported”; with Hepatotoxicity [3] (Liver) it was “drug-induced liver injury reported”.

In the case of `CC(COc1ccccc1)N(CCCl)Cc1ccccc1` (configuration not stated) [PHENOXYBENZAMINE], the Hepatotoxicity result with Hepatotoxicity [1] is “drug-induced liver injury reported”; with Hepatotoxicity [2], “no drug-induced liver injury reported”; with Hepatotoxicity [3], “no drug-induced liver injury reported”.

In the case of `CCC(c1ccccc1)c1c(O)c2ccccc2oc1=O` (configuration not stated) [PHENPROCOUMON], the figures for the Hepatotoxicity entry in the data set on Hepatotoxicity [1], in the data set on Hepatotoxicity [2] and in the data set with Hepatotoxicity [3] were “no drug-induced liver injury reported”, “no drug-induced liver injury reported” and “drug-induced liver injury reported”, respectively.

Turning to `Cc1ccc(N(CC2=NCCN2)c2cccc(O)c2)cc1` [PHENTOLAMINE], the Hepatotoxicity entry in the data set on Hepatotoxicity [1] is recorded as “drug-induced liver injury reported”; in the data set on Hepatotoxicity [2], “drug-induced liver injury reported”; in the data set with Hepatotoxicity [3], “no drug-induced liver injury reported”.

With `O=C(O)Cc1ccccc1` [PHENYLACETIC ACID], the results for the Hepatotoxicity entry with Hepatotoxicity [1], in the data set on Hepatotoxicity [2] and with Hepatotoxicity [3] were “drug-induced liver injury reported”, “no drug-induced liver injury reported” and “no drug-induced liver injury reported”, respectively.

Consider `CNC[C@H](O)c1cccc(O)c1` [PHENYLEPHRINE], for which the Hepatotoxicity entry in the data set on Hepatotoxicity [1], in the data set with Hepatotoxicity [2] and in the data set on Hepatotoxicity [3] was “drug-induced liver injury reported” each time.

Take `OC(CNc1ccccn1)c1ccccc1` (configuration not stated) [PHENYRAMIDOL]: the figures for the Hepatotoxicity result in the data set on Hepatotoxicity [1], with Hepatotoxicity [2] and in the data set on Hepatotoxicity [3] were “no drug-induced liver injury reported”, “no drug-induced liver injury reported” and “drug-induced liver injury reported”, respectively.

As for `O=C1NC(=O)C(c2ccccc2)(c2ccccc2)N1` [PHENYTOIN], the Hepatotoxicity result in the data set on Hepatotoxicity [1] (Liver), with Hepatotoxicity [2] (Liver) and in the data set with Hepatotoxicity [3] (Liver) was “drug-induced liver injury reported” throughout.

Turning to `CNC(=O)Oc1ccc2c(c1)[C@]1(C)CCN(C)[C@@H]1N2C` [PHYSOSTIGMINE], the Hepatotoxicity result with Hepatotoxicity [1] is “drug-induced liver injury reported”; in the data set on Hepatotoxicity [2], “no drug-induced liver injury reported”; in the data set with Hepatotoxicity [3], “no drug-induced liver injury reported”.

Regarding `CC[C@@H]1C(=O)OC[C@@H]1Cc1cncn1C` [PILOCARPINE], the Hepatotoxicity entry with Hepatotoxicity [1] is on record as “drug-induced liver injury reported”; in the data set on Hepatotoxicity [2] it was “no drug-induced liver injury reported”; in the data set on Hepatotoxicity [3] it was “no drug-induced liver injury reported”.

For `N=C(N)NN` [PIMAGEDINE], the Hepatotoxicity entry in the data set with Hepatotoxicity [1] is on record as “drug-induced liver injury reported”; in the data set with Hepatotoxicity [2], “no drug-induced liver injury reported”; in the data set with Hepatotoxicity [3] it was “no drug-induced liver injury reported”.

`O=c1[nH]c2ccccc2n1C1CCN(CCCC(c2ccc(F)cc2)c2ccc(F)cc2)CC1` [PIMOZIDE]: the Hepatotoxicity entry with Hepatotoxicity [1] is “no drug-induced liver injury reported”; in the data set on Hepatotoxicity [2] it was “no drug-induced liver injury reported”; with Hepatotoxicity [3], “drug-induced liver injury reported”.

Take `CC(N/C(=N\C#N)Nc1ccncc1)C(C)(C)C` (configuration not stated) [PINACIDIL ANHYDROUS]: the Hepatotoxicity entry is recorded as “drug-induced liver injury reported” with Hepatotoxicity [1], “no drug-induced liver injury reported” with Hepatotoxicity [2] and “drug-induced liver injury reported” in the data set with Hepatotoxicity [3].

Regarding `CCn1cc(C(=O)O)c(=O)c2cnc(N3CCNCC3)nc21` [PIPEMIDIC ACID], the Hepatotoxicity result in the data set on Hepatotoxicity [1] is given as “no drug-induced liver injury reported”; with Hepatotoxicity [2], “no drug-induced liver injury reported”; in the data set with Hepatotoxicity [3], “drug-induced liver injury reported”.

`CCN1CCN(C(=O)N[C@@H](C(=O)N[C@@H]2C(=O)N3[C@@H]2SC(C)(C)[C@@H]3C(=O)O)c2ccccc2)C(=O)C1=O` [PIPERACILLIN]: the Hepatotoxicity result was “drug-induced liver injury reported” in the data set on Hepatotoxicity [1], “drug-induced liver injury reported” in the data set with Hepatotoxicity [2] and “no drug-induced liver injury reported” with Hepatotoxicity [3].

Consider `C1CNCCN1` [PIPERAZINE], for which the Hepatotoxicity entry in the data set on Hepatotoxicity [1] (Liver) is “drug-induced liver injury reported”; in the data set on Hepatotoxicity [2] (Liver), “no drug-induced liver injury reported”; in the data set with Hepatotoxicity [3] (Liver) it was “no drug-induced liver injury reported”.

Regarding `CCCCOCCOCCOCc1cc2c(cc1CCC)OCO2` [PIPERONYL BUTOXIDE], the Hepatotoxicity result with Hepatotoxicity [1] (Liver) is “drug-induced liver injury reported”; with Hepatotoxicity [2] (Liver) it was “no drug-induced liver injury reported”; in the data set on Hepatotoxicity [3] (Liver), “no drug-induced liver injury reported”.

`Cc1ccc(=O)n(-c2ccccc2)c1` [PIRFENIDONE]: the Hepatotoxicity entry is listed as “drug-induced liver injury reported” in the data set on Hepatotoxicity [1], “drug-induced liver injury reported” with Hepatotoxicity [2] and “no drug-induced liver injury reported” with Hepatotoxicity [3].

Consider `COc1ccc(OC)c(Cc2cnc3nc(N)nc(N)c3c2C)c1` [PIRITREXIM], for which the Hepatotoxicity entry was “no drug-induced liver injury reported” with Hepatotoxicity [1], “no drug-induced liver injury reported” with Hepatotoxicity [2] and “drug-induced liver injury reported” in the data set on Hepatotoxicity [3].

In the case of `CN1C(C(=O)Nc2ccccn2)=C(O)c2ccccc2S1(=O)=O` [PIROXICAM], the Hepatotoxicity result is “drug-induced liver injury reported” with Hepatotoxicity [1], “no drug-induced liver injury reported” in the data set with Hepatotoxicity [2] and “drug-induced liver injury reported” in the data set on Hepatotoxicity [3].

As for `CC(C(=O)O)c1ccc(N2CC=CC2)c(Cl)c1` (configuration not stated) [PIRPROFEN], the Hepatotoxicity entry is listed as “drug-induced liver injury reported” with Hepatotoxicity [1], “no drug-induced liver injury reported” with Hepatotoxicity [2] and “drug-induced liver injury reported” in the data set with Hepatotoxicity [3].

As to `O=C(O)C[C@H](O)C[C@H](O)/C=C/c1c(C2CC2)nc2ccccc2c1-c1ccc(F)cc1` [PITAVASTATIN], the Hepatotoxicity entry in the data set with Hepatotoxicity [1] is “drug-induced liver injury reported”; with Hepatotoxicity [2], “no drug-induced liver injury reported”; in the data set with Hepatotoxicity [3], “drug-induced liver injury reported”.

In the case of `CN1CCC(=C2c3ccccc3CCc3sccc32)CC1` [PIZOTYLINE], the Hepatotoxicity entry was “no drug-induced liver injury reported” with Hepatotoxicity [1], “no drug-induced liver injury reported” with Hepatotoxicity [2] and “drug-induced liver injury reported” in the data set with Hepatotoxicity [3].

Regarding `CO[C@H](C(=O)[C@@H](O)[C@@H](C)O)[C@@H]1Cc2cc3cc(O[C@H]4C[C@@H](O[C@H]5C[C@@H](O)[C@H](O)[C@@H](C)O5)[C@H](O)[C@@H](C)O4)c(C)c(O)c3c(O)c2C(=O)[C@H]1O[C@H]1C[C@@H](O[C@H]2C[C@@H](O[C@H]3C[C@](C)(O)[C@H](O)[C@@H](C)O3)[C@@H](O)[C@@H](C)O2)[C@H](O)[C@@H](C)O1` [PLICAMYCIN], the Hepatotoxicity entry with Hepatotoxicity [1] was “drug-induced liver injury reported”; with Hepatotoxicity [2], “no drug-induced liver injury reported”; in the data set on Hepatotoxicity [3] it was “drug-induced liver injury reported”.
